# Experimental data as given in US11965886B2, “Method of immobilizing a cell on a support using compounds comprising a polyethylene glycol moiety” (Roche Diagnostics Operations, Inc., priority 2013, dated 2024).
# Several values for one entry are separate records, joined by “and”; a condition that tells them apart may be missing. Equal entries are not always repeated. Where two headings read alike, the source gives them in different places.
# Columns and labels:
# [1] = system: WBCs; experiment: Immobilization of cells: recovery rate of cells on SA (streptavidin) plate or untreated plate (Example 3); type: cell-based
# Method: The following applies for modular description of the compounds below: X=hydrophobic moiety, […]=fluorescein In the following experiment, the recovery rate of cells was determined.
# [2] = system: white blood cells (WBCs)
# Method: In particular, the performance of a single cholesterol-molecule and different dual-linker molecules (i.e. containing two hydrophobic moieties) was tested. In detail, immobilization of white blood cells (WBCs) on a Streptavidin-coated surface using different linker molecules was tested on a 12-well plate: 300 000 WBCs/well. This was followed by the measurement of the cell recovery rate after immobilization and washing of the cells using the Cellavista instrument (10× Nuclei Operator s9s5).
# [3] = system: Epithelial cells; experiment: Labelling of cells using compounds (staining/uptake); type: cell-based
# Excerpt: (§1) 2. Labelling of Cells Using Compounds Useful in Methods of the Invention
# [4] = system: MDA-MB468; experiment: as above; type: cell-based
# Excerpt: as §1
# [5] = system: WBCs; experiment: as above; type: cell-based
# Excerpt: as §1
# [6] = system: U937; experiment: as above; type: cell-based
# Excerpt: as §1
# [7] = system: WBC; experiment: WBC recovery rate after centrifugation (cell stabilization, Example 5); type: cell-based; conditions: 300×g; for WBC recovery rate after centrifugation at different points of time, dependence on concentration: 0.35 nmol molecule A, 100 nmol and 0.5 nmol molecule B
# Method: A) WBC Recovery Rate after Centrifugation and Cell Immobilization Using Different Molecules
# Centrifugation characteristics: 10 min, 300×g.
# B) WBC Recovery Rate after Centrifugation Using Different Compounds—Different Points of Time
# Centrifugation characteristics: 10 min, 300×g. A: Choleseryl-TEG-Cholesteryl-TEG-(SpacerC18)7-Fluos-Biotin-TEG.
# C) WBC Recovery Rate after Centrifugation—Different Experimenters
# Centrifugation characteristics: 10 min, 300×g. Molecule: Cholesteryl-TEG-Cholesteryl-TEG-(SpacerC18)7-Fluos-Biotin-TEG.
# D) WBC Recovery Rate after Centrifugation—Different Points of Time and Centrifugation Settings
# Centrifugation characteristics: 20 min, 300×g.
# [8] = Sample 1, first block (concentration not given), 300 000 WBCs/well
# [9] = Sample 1, compound concentration: 1 nmol/10e6 WBCs
# [10] = Sample 1, compound concentration: 1 nmol/10e6 WBCs, 300 000 WBCs/well
# [11] = Sample 2, compound concentration: 100 pmol/10e6 WBCs
# [12] = Sample 2, compound concentration: 100 pmol/10e6 WBCs, 300 000 WBCs/well
# [13] = Sample 2, compound concentration: 1 nmol/10e6 WBCs
# [14] = Sample 2, compound concentration: 1 nmol/10e6 WBCs, 300 000 WBCs/well
# [15] = cells treated with compound, streptavidin plate, repeated experiments
compound,measurement,setting,value
CCCCCCCC/C=C\CCCCCCCC(=O)OC[C@H](COP(=O)([O-])OCCNC(=O)CCCCCNC(=O)CCCC[C@@H]1SC[C@@H]2NC(=O)N[C@@H]21)OC(=O)CCCCCCC/C=C\CCCCCCCC.[Na+],Recovery Rate,[1]; 10 pmol/10e6 cells,66.30% and 74.40%
same,Recovery Rate,[1]; 500 pmol/10e6 cells,80.16% and 95.94%
same,Recovery Rate,[1]; 1 nmol/10e6 cells,95.80% and 101.76%
same,Recovery Rate,[1]; 10 nmol/10e6 cells,89.19% and 105.12%
CCCCCCCCCCCCCCCC(=O)OC[C@H](COP(=O)([O-])OCCNC(=O)CCCCCNC(=O)CCCC[C@@H]1SC[C@@H]2NC(=O)N[C@@H]21)OC(=O)CCCCCCCCCCCCCCC.[Na+],Recovery Rate,[1]; 10 pmol/10e6 cells,54.30% and 45.40%
same,Recovery Rate,[1]; 100 pmol/10e6 cells,72.20% and 86.10%
same,Recovery Rate,[1]; 300 pmol/10e6 cells,51.80% and 55.90% and 52.60% and 73.07% and 61.27% and 71.40%
same,Recovery Rate,[1]; 1 nmol/10e6 cells,84.90% and 89.30%
5′-(Cholesterol-TEG)1-Doubler-dT-Biotin-3′ [29.891272],Recovery Rate,[2]; [8],56.49%
same,cells counted per well,[2]; [8],147132 and 179643 and 181620
same,Recovery Rate,[2]; [9],72.13%
same,cells counted per well,[2]; [10],199973 and 220701 and 228481
same,Mean (cells counted per well),[2]; [11],186316.33
same,Recovery Rate,[2]; [11],62.11%
same,cells counted per well,[2]; [12],161504 and 201424 and 196021
same,Mean (cells counted per well),[2]; [13],247418.33
same,Recovery Rate,[2]; [13],82.47%
same,cells counted per well,[2]; [14],241232 and 254894 and 246129
same,"cell immobilization characteristics, mono linker vs dual linker",[2]; conclusion of Example 4,shows similar cell immobilization characteristics compared dual linker molecules
same,Recovery Rate,[1]; 10 pmol/10e6 cells,65.03%
same,Recovery Rate,[1]; 100 pmol/10e6 cells,83.08% and 56.49% and 62.11% and 82.01%
same,Recovery Rate,[1]; 1 nmol/10e6 cells,87.93% and 72.13% and 82.47%
same,Recovery Rate,[1]; 10 nmol/10e6 cells,Cells lysed
5′-(Cholesteryl-TEG)2-PEG2000-Fluos-Biotin_TEG-3′ INVERS [29.891250],Recovery Rate,[1]; 100 pmol/10e6 cells,48.66%
same,Recovery Rate,[1]; 1 nmol/10e6 cells,81.29%
5′-(Cholesteryl-TEG)2-Spacer C12-dT-Biotin_TEG-3′ INVERS [29.891253],Recovery Rate,[2]; [8],41.44%
same,cells counted per well,[2]; [8],105061 and 128195 and 139678
same,Recovery Rate,[2]; [9],72.13%
same,cells counted per well,[2]; [10],218861 and 221471 and 208802
same,Mean (cells counted per well),[2]; [11],187757.67
same,Recovery Rate,[2]; [11],62.59%
same,cells counted per well,[2]; [12],178919 and 197130 and 187224
same,Mean (cells counted per well),[2]; [13],237052.33
same,Recovery Rate,[2]; [13],79.02%
same,cells counted per well,[2]; [14],239105 and 240632 and 231420
same,Recovery Rate,[1]; 10 pmol/10e6 cells,47.42%
same,Recovery Rate,[1]; 100 pmol/10e6 cells,73.46% and 41.44% and 62.59% and 71.41%
same,Recovery Rate,[1]; 1 nmol/10e6 cells,96.84% and 72.13% and 79.02% and 86.21%
same,Recovery Rate,[1]; 10 nmol/10e6 cells,102.36%
5′-Cholesteryl-TEG-PEG2000-Fluos-3′ [29.891132],Labelling (staining/uptake) of cells,[3],✓
same,Labelling (staining/uptake) of cells,[4],✓
same,Labelling (staining/uptake) of cells,[5],✓ not all
same,Labelling (staining/uptake) of cells,[6],✓
5′-CholesterylTEG-CholesterylTEG-(SpacerC18)7-Fluos-BiotinTEG-3′ [29.891222],"WBC recovery rate after centrifugation, different experimenters, dependence on concentration",[7]; Centrifugation: 10 min,"the higher the molecule concentration, the higher the cell recovery rate after centrifugation"
same,"WBC recovery rate after centrifugation at different points of time, dependence on concentration",[7]; Centrifugation: 10 min,"The higher the molecule concentration, the higher the cell recovery rate after centrifugation"
same,"cell stabilization, dependence on experimenter","[7]; Experimenters 1, 2 and 3, 10 min",cell stabilization is independent on the experimenter
5′-CholesterylTEG-CholesterylTEG-PEG2000-BiotinTEG-3′ [29.891137],Recovery Rate,"[1]; WBCs, concentration not given",77.1%
5′-CholesterylTEG-SpacerC12-CholesterylTEG-(SpacerC18)7-Fluos-BiotinTEG-3 [29.891224],Recovery Rate,"[1]; WBCs, 350 pmol/10e6 cells",119.4% and 60.6% and 64.4% and 70.3% and 78.1%
5′-CholesterylTEG-SpacerC18-CholesterylTEG-(SpacerC18)7-Fluos-BiotinTEG-3′ [29.891225],Recovery Rate,"[1]; WBCs, 350 pmol/10e6 cells",38.8% and 46.5%
5′-Myristic acid-CholesterylTEG-(SpacerC18)7-Fluos-BiotinTEG-3′ [29.891227],Recovery Rate,"[1]; WBCs, 350 pmol/10e6 cells",64.9% and 69.6% and 77.8%
5′-Myristic acid-Myristic acid-(SpacerC18)7-Fluos-BiotinTEG-3′ [29.891214],Recovery Rate,"[1]; WBCs, 350 pmol/10e6 cells",78.9% and 68.7% and 90.5% and 81.1% and 65.9% and 84.9% and 85.1%
same,Recovery rate treated cells (SA-plate),[1]; [15],78.9%
5′-Myristic acid-Myristic acid-Myristic acid-(SpacerC18)7-Fluos-BiotinTEG-3′ [29.891221],Recovery Rate,"[1]; WBCs, 350 pmol/10e6 cells",46.0% and 79.4% and 68.8% and 76.5% and 83.4%
5′-Myristic acid-Myristic acid-PEG2000-Fluos-BiotinTEG-3′ [29.891194],Recovery Rate,"[1]; WBCs, 350 pmol/10e6 cells",21-26%
5′-Myristic acid-Myristic acid-SpacerC18-Fluos-BiotinTEG-3′ [29.891213],Recovery Rate,"[1]; WBCs, 350 pmol/10e6 cells",67.4% and 61.9% and 80.2% and 70.4%
same,Recovery rate treated cells (SA-plate),[1]; [15],67.4%
5′-Myristic acid-SpacerC9-Myristic acid-(SpacerC18)7-Fluos-BiotinTEG-3′ [29.891218],Recovery Rate,"[1]; WBCs, 350 pmol/10e6 cells",50.3% and 55.1%
5′-Myristic acid-SpacerC9-Myristic acid-PEG2000-Fluos-BiotinTEG-3′ [29.891197],staining,[5]; remark in the Recovery Rate column,not good
5′-Myristic acid-SpacerC12-Myristic acid-(SpacerC18)7-Fluos-BiotinTEG-3 [29.891219],Recovery Rate,"[1]; WBCs, 350 pmol/10e6 cells",46.3% and 39.4% and 53.7% and 56.6%
5′-Myristic acid-SpacerC18-Myristic acid-(SpacerC18)7-Fluos-BiotinTEG-3′ [29.891220],Recovery Rate,"[1]; WBCs, 350 pmol/10e6 cells",35.8% and 41.4% and 55.9% and 63.5%
5′-alphaTocopherolTEG-PEG2000-Fluos-3′ [29.891131],Labelling (staining/uptake) of cells,[3],✓
same,Labelling (staining/uptake) of cells,[4],✓
same,Labelling (staining/uptake) of cells,[5],✓ not all
same,Labelling (staining/uptake) of cells,[6],✓
CCCCCCCCCCCCCCCCCCCCCCN1/C(=C/C=C/c2oc3ccccc3[n+]2CCC)Oc2ccccc21.[I-] [PKH2],Labelling (staining/uptake) of cells,[3],✓ not all
Biotin-PEG-Lys-(C14)2 [15.260268],Recovery Rate,[1]; 1.77 nmol/10e6 Cells,85.72
same,Recovery rate treated cells (SA-plate),[1]; 2.16 μg/2 × 10e6 WBCs,39.6%
same,Recovery rate treated cells (SA-plate),[1]; 21.6 μg/2 × 10e6 WBCs,46.7%
same,Recovery rate treated cells (SA-plate),[1]; 216 μg/2 × 10e6 WBCs,51.8%
same,Recovery Rate,"[1]; WBCs, concentration not given",52-86%
Biotin-PEG-Lysin-(C18)2 [listing 1 of 2 here],enables cell immobilization within,[7]; Centrifugation: 10 min,≤ 3.5 h
same,"WBC recovery rate after centrifugation at different points of time, dependence on concentration",[7]; Centrifugation: 10 min,"The higher the molecule concentration, the higher the cell recovery rate after centrifugation"
Biotin-PEG-Lysin-(C18)2 [listing 2 of 2 here],Recovery Rate,[1]; 10 pmol/10e6 cells,4.8%
same,Recovery Rate,[1]; 100 pmol/10e6 cells,6.8%
same,Recovery Rate,[1]; 1 nmol/10e6 cells,21.8% and 29.6%
same,Recovery Rate,[1]; 10 nmol/10e6 cells,60.6% and 43.0% and 68.5%
same,Recovery Rate,"[1]; WBCs, 350 pmol/10e6 cells, 0.00003% Tween22",15.0%
same,Recovery Rate,"[1]; WBCs, 350 pmol/10e6 cells, 0.0001% Tween21",10.0%
same,Recovery Rate,"[1]; WBCs, 350 pmol/10e6 cells, 0.0003% Tween20",10.0%
same,Recovery Rate,"[1]; WBCs, 350 pmol/10e6 cells, 0.001% Tween20",9.0%
same,Recovery Rate,"[1]; WBCs, 0.5 nmol/10e6 cells",25.0% and 27.0% and 38.0%
same,Recovery Rate,"[1]; WBCs, 50 nmol/10e6 cells",69.0%
Biotin-PEG-Lysin-(C18)2 [HH1749],"WBC recovery rate after centrifugation, dependence on concentration",[7]; Centrifugation: 10 min,"The higher the concentration of the molecule, the higher the cell recovery rate after centrifugation"
Biotin-PEG-Lysin-(C18)2 [HH1750],"WBC recovery rate after centrifugation, dependence on concentration",[7]; Centrifugation: 10 min,"The higher the concentration of the molecule, the higher the cell recovery rate after centrifugation"
Biotin-PEG-Lysin-(C18)2 [HH1755],"WBC recovery rate after centrifugation, dependence on concentration",[7]; Centrifugation: 10 min,"The higher the concentration of the molecule, the higher the cell recovery rate after centrifugation"
Sulfo-JA133-phenylboronic acid [15.000078],Labelling (staining/uptake) of cells,[3],✓
same,Labelling (staining/uptake) of cells,[5],✓ not all
